This note sets out measurements from US20260217720A1, “COMPOSITIONS USEFUL FOR MODULATING SPLICING” (Skyhawk Therapeutics, Inc., priority 2023, published 2026).

The IC50 is the concentration needed to halve the response being measured.

The structures appear in SMILES notation.

The subject of assay [1] is ATXN3 transcripts containing exon 4. Kind of assay: ATXN3 Quantitative Splicing Assay (qPCR, E4E5 primers/probe). The class given is cell-based. The conditions noted are these: Homo sapiens, SK-N-MC cells, 24 h treatment, read-out: ATXN3 Potency - Splicing E4E5 IC50 Mean. As to the method: Human neuroblastoma SK-N-MC cells were plated in 384-well plates at 20,000 cells/well. Twenty-four hours after plating, cells were treated with compounds for 24 h at appropriate concentrations ranging from 30 μM to 0.6 nM (0.3% DMSO). Treated cells were lysed in 15 μL of lysis buffer, and cDNA was synthesized using the Fast Advanced Cells-to-Ct kit. Two μL of each cDNA was used in qPCR reactions to confirm the exon 4 skipped transcripts of ATXN3. A second set of primers/probe E4E5 was used to detect the transcripts containing exon 4. The third set of primers/probe E8E9 was used to detect total gene level of ATXN3. The qPCR reactions were prepared in 384-well plates in 10 μL volume, using TaqMan™ Fast Advanced Master Mix with primers and probes shown in the table below. Reactions were run in a Quant Studio 6 qPCR instrument with default settings.
The primers and probes are listed below in Table 3.

The next assay concerns total ATXN3 protein. Kind of assay: ATXN3 Total Protein Assay (MSD). The format is cell-based, Human. The following applies: SK-N-MC cells, 48 hours incubation, read-out: ATXN3 Potency - Protein IC50. Here is the method: Human neuroblastoma SK-N-MC cells were seeded at 10,000 cells/well in 384 well plates one day prior to compound treatment. The concentrations of compounds were tested at appropriate doses ranging from 30 μM to 0.6 nM. After incubation for 48 hours, the cells were lysed with 25 μL of lysis buffer containing protease inhibitors, and total ATXN3 protein levels were assessed by Mesoscale Discovery (MSD) assay developed with one pair of anti-ATXN3 antibodies. The capture and detect antibodies were raised in mouse and rabbit respectively. Anti-rabbit MSD-ST antibody was used for secondary antibody.
ATXN3 recombinant protein was used for standards. The readouts were captured with 35 μL of MSD read buffer and multi-array 384-well high binding plates.

On to `C[C@H](F)[C@H](N)Cc1cc2c(NCc3cccs3)cc(Cl)nn2c1Cl` [Compound 11], for which, in assay [1], the 50% inhibitory concentration (IC50) is 0.01 to 100 nM. Still for that read-out and setting: then `N[C@@H](COC(F)F)Cc1cc2c(NCc3cccs3)cc(Cl)nn2c1Cl` [Compound 9, (R)-6-(2-amino-3-(difluoromethoxy)propyl)-2,7-dichloro-N-(thiophen-2-ylmethyl)pyrrolo[1,2-b]pyridazin-4-amine], with 0.01 to 100 nM; and `N[C@@H](CF)Cc1cc2c(NCc3cccs3)cc(Cl)nn2c1Cl` [Compound 10, (R)-6-(2-amino-3-fluoropropyl)-2,7-dichloro-N-(thiophen-2-ylmethyl)pyrrolo[1,2-b]pyridazin-4-amine], with 0.01 to 100 nM. For the compound `Cc1c(C[C@@H](N)CF)cc2c(NCc3cccs3)cc(Cl)nn12` [Compound 5, (R)-6-(2-amino-3-fluoropropyl)-2-chloro-7-methyl-N-(thiophen-2-ylmethyl)pyrrolo[1,2-b]pyridazin-4-amine], the concentration for half-maximal inhibition (IC50) in the assay on total ATXN3 protein was in the range of 101 to 500 nM; in assay [1] it was 501 to 5000 nM. The like results for `Cc1c(C[C@H](C)N)cc2c(NCc3cccs3)cc(Cl)nn12` [Compound 1, (S)-6-(2-aminopropyl)-2-chloro-7-methyl-N-(thiophen-2-ylmethyl)pyrrolo[1,2-b]pyridazin-4-amine] were, in that order, 101 to 500 nM and 101 to 500 nM. As for `Cc1c(C[C@@H](N)CO)cc2c(NCc3cccs3)cc(Cl)nn12` [Compound 8, (R)-2-amino-3-(2-chloro-7-methyl-4-((thiophen-2-ylmethyl)amino)pyrrolo[1,2-b]pyridazin-6-yl) propan-1-ol], the half-maximal inhibitory concentration (IC50) in assay [1] is 0.01 to 100 nM. As for `COC[C@H](N)Cc1cc2c(NCc3cccs3)cc(Cl)nn2c1C` [Compound 3, (R)-6-(2-amino-3-methoxypropyl)-2-chloro-7-methyl-N-(thiophen-2-ylmethyl)pyrrolo[1,2-b]pyridazin-4-amine], in assay [1], the IC50 lay within 501 to 5000 nM. Same read-out and setting: as for `C[C@H](F)[C@H](N)Cc1cc2c(NCc3cccs3)cc(Cl)nn2c1` [Compound 4, 6-((2R,3S)-2-amino-3-fluorobutyl)-2-chloro-N-(thiophen-2-ylmethyl)pyrrolo[1,2-b]pyridazin-4-amine], the figure is 101 to 500 nM.

For `Cc1c(C[C@@H](N)[C@H](C)F)cc2c(NCc3cccs3)cc(Cl)nn12` [Compound 6, 6-((2R,3S)-2-amino-3-fluorobutyl)-2-chloro-7-methyl-N-(thiophen-2-ylmethyl)pyrrolo[1,2-b]pyridazin-4-amine], the concentration for half-maximal inhibition (IC50) (with total ATXN3 protein; in assay [1]) was 101 to 500 nM each time. `N[C@@H](CF)Cc1cc2c(NCc3cccs3)cc(Cl)nn2c1` [Compound 7, (R)-6-(2-amino-3-fluoropropyl)-2-chloro-N-(thiophen-2-ylmethyl)pyrrolo[1,2-b]pyridazin-4-amine]: the IC50 in assay [1] was in the range of 101 to 500 nM. On to `C[C@H](N)Cc1cc2c(NCc3cccs3)cc(Cl)nn2c1Cl` [Compound 2, (S)-6-(2-aminopropyl)-2,7-dichloro-N-(thiophen-2-ylmethyl)pyrrolo[1,2-b]pyridazin-4-amine], for which the concentration for half-maximal inhibition (IC50) in assay [1] lay in the range of 0.01 to 100 nM.
